Laboratory results taken from ChEMBL document CHEMBL5055685, “Discovery of the First Potent IDO1/IDO2 Dual Inhibitors: A Promising Strategy for Cancer Immunotherapy” (J Med Chem, 2021).
Calls of active or inactive are those of the source. No cut-off for these calls is given here.

Key:
[1] = AUC (0 to infinity) in Sprague-Dawley rat at 5 mg/kg, iv; assay type: ADME, organism-based; set-up: time infinity, dose 5 mg/kg, route iv; conditions: Sprague-Dawley, in vivo
HeLa = experiment: Cytotoxicity against human HeLa cells assessed as reduction in cell viability at 1 to 10 uM by CCK8 assay; assay type: functional, cell-based; conditions: dose 1-10 µM
[2] = AUC (0 to t) in Sprague-Dawley rat at 50 mg/kg, po; assay type: ADME, organism-based; set-up: dose 50 mg/kg, route po; conditions: in vivo
[3] = Protein binding in human plasma by equilibrium dialysis; assay type: ADME, cell-free; conditions: read-out: PPB (converted)
[4] = Protein binding in Beagle dog plasma assessed as fraction unbound by equilibrium dialysis; assay type: ADME, cell-free, Canis lupus familiaris
[5] = Protein binding in Beagle dog plasma by equilibrium dialysis; assay type: ADME, cell-free, Canis lupus familiaris; conditions: read-out: PPB (converted)
HCT-116 = experiment: Antitumor immunity in BALB/c mouse xenografted with human HCT-116 cells assessed as increase in IFNgamma in serum by […]; assay type: functional, cell-based
[6] = molecular target: Indoleamine 2,3-dioxygenase 1 (Mus musculus) (UniProt P28776); experiment: In vivo inhibition of IDO1 in BALB/c mouse xenografted with human HCT-116 cells assessed as suppression of IDO1 expression in tumor by immunohistochemical assay; assay type: functional, organism-based
[7] = molecular target: Indoleamine 2,3-dioxygenase 1 (Mus musculus) (UniProt P28776); experiment: In vivo inhibition of IDO1 in BALB/c mouse xenografted with human HCT-116 cells assessed as suppression of IDO1 mRNA expression in tumor by quantitative RT-PCR analysis; assay type: functional, organism-based
[8] = molecular target: RAC-gamma serine/threonine-protein kinase (Homo sapiens) (UniProt Q9Y243); experiment: Inhibition of AKT3 (unknown origin) at 1 uM
[9] = molecular target: NUAK family SNF1-like kinase 1 (Homo sapiens) (UniProt O60285); experiment: Inhibition of ARK5 (unknown origin) at 1 uM
[10] = molecular target: CDK17/Cyclin-Y (Homo sapiens) (UniProt Q00537+Q8ND76); experiment: Inhibition of CDK17/cyclin-Y (unknown origin) at 1 uM; assay type: protein-complex assay
[11] = molecular target: Cyclin-dependent kinase 2/cyclin E1 (Homo sapiens) (UniProt P24864+P24941); experiment: Inhibition of CDK2/cyclin-E (unknown origin) at 1 uM; assay type: protein-complex assay
[12] = molecular target: CDK2/Cyclin O (Homo sapiens) (UniProt P24941+P22674); experiment: Inhibition of CDK2/cyclin-O (unknown origin) at 1 uM; assay type: protein-complex assay
[13] = molecular target: Cyclin-dependent kinase 5/CDK5 activator 1 (Homo sapiens) (UniProt Q00535+Q15078); experiment: Inhibition of CDK5/p35 (unknown origin) at 1 uM; assay type: protein-complex assay
[14] = molecular target: Casein kinase I isoform alpha (Homo sapiens) (UniProt P48729); experiment: Inhibition of CK1a1 (unknown origin) at 1 uM
[15] = molecular target: Tyrosine-protein kinase CSK (Homo sapiens) (UniProt P41240); experiment: Inhibition of CSK (unknown origin) at 1 uM
[16] = molecular target: Ephrin type-A receptor 2 (Homo sapiens) (UniProt P29317); experiment: Inhibition of EPHA2 (unknown origin) at 1 uM
[17] = molecular target: G protein-coupled receptor kinase 6 (Homo sapiens) (UniProt P43250); experiment: Inhibition of GRK6 (unknown origin) at 1 uM
[18] = molecular target: Homeodomain-interacting protein kinase 2 (Homo sapiens) (UniProt Q9H2X6); experiment: Inhibition of HIPK2 (unknown origin) at 1 uM
[19] = molecular target: Insulin-like growth factor 1 receptor (Homo sapiens) (UniProt P08069); experiment: Inhibition of IGF1R (unknown origin) at 1 uM
[20] = molecular target: Inhibitor of nuclear factor kappa-B kinase subunit alpha (Homo sapiens) (UniProt O15111); experiment: Inhibition of IKKalpha (unknown origin) at 1 uM
[21] = molecular target: Insulin receptor-related protein (Homo sapiens) (UniProt P14616); experiment: Inhibition of IRR (unknown origin) at 1 uM
[22] = molecular target: Mitogen-activated protein kinase 8 (Homo sapiens) (UniProt P45983); experiment: Inhibition of JNK1 (unknown origin) at 1 uM
[23] = molecular target: Mitogen-activated protein kinase kinase kinase 3 (Homo sapiens) (UniProt Q99759); experiment: Inhibition of MEKK3 (unknown origin) at 1 uM
[24] = molecular target: Myosin-IIIb (Homo sapiens) (UniProt Q8WXR4); experiment: Inhibition of MYO3B (unknown origin) at 1 uM
[25] = molecular target: Serine/threonine-protein kinase Nek1 (Homo sapiens) (UniProt Q96PY6); experiment: Inhibition of NEK1 (unknown origin) at 1 uM
[26] = molecular target: Serine/threonine-protein kinase Nek11 (Homo sapiens) (UniProt Q8NG66); experiment: Inhibition of NEK11 (unknown origin) at 1 uM
[27] = molecular target: Ribosomal protein S6 kinase beta-2 (Homo sapiens) (UniProt Q9UBS0); experiment: Inhibition of p70S6Kb (unknown origin) at 1 uM
[28] = molecular target: Serine/threonine-protein kinase PAK 6 (Homo sapiens) (UniProt Q9NQU5); experiment: Inhibition of PAK6 (unknown origin) at 1 uM
[29] = molecular target: Platelet-derived growth factor receptor beta (Homo sapiens) (UniProt P09619); experiment: Inhibition of PDGFRbeta (unknown origin) at 1 uM
[30] = molecular target: cAMP-dependent protein kinase catalytic subunit beta (Homo sapiens) (UniProt P22694); experiment: Inhibition of PKAcb (unknown origin) at 1 uM
[31] = molecular target: Serine/threonine-protein kinase PLK2 (Homo sapiens) (UniProt Q9NYY3); experiment: Inhibition of PLK2 (unknown origin) at 1 uM
[32] = molecular target: Serine/threonine-protein kinase PLK4 (Homo sapiens) (UniProt O00444); experiment: Inhibition of PLK4 (unknown origin) at 1 uM
[33] = molecular target: Rho-associated protein kinase 2 (Homo sapiens) (UniProt O75116); experiment: Inhibition of ROCK2 (unknown origin) at 1 uM
[34] = molecular target: Ribosomal protein S6 kinase alpha-1 (Homo sapiens) (UniProt Q15418); experiment: Inhibition of RSK1 (unknown origin) at 1 uM
[35] = molecular target: SNF-related serine/threonine-protein kinase (Homo sapiens) (UniProt Q9NRH2); experiment: Inhibition of SNRK (unknown origin) at 1 uM
[36] = molecular target: Serine/threonine-protein kinase 25 (Homo sapiens) (UniProt O00506); experiment: Inhibition of STK25 (unknown origin) at 1 uM
[37] = molecular target: Serine/threonine-protein kinase 38 (Homo sapiens) (UniProt Q15208); experiment: Inhibition of STK38 (unknown origin) at 1 uM
[38] = molecular target: BDNF/NT-3 growth factors receptor (Homo sapiens) (UniProt Q16620); experiment: Inhibition of TRKB (unknown origin) at 1 uM
[39] = molecular target: Testis-specific serine/threonine-protein kinase 3 (Homo sapiens) (UniProt Q96PN8); experiment: Inhibition of TSSK3 (unknown origin) at 1 uM
[40] = molecular target: Serine/threonine-protein kinase WNK2 (Homo sapiens) (UniProt Q9Y3S1); experiment: Inhibition of WNK2 (unknown origin) at 1 uM
[41] = molecular target: Mitogen-activated protein kinase kinase kinase 20 (Homo sapiens) (UniProt Q9NYL2); experiment: Inhibition of ZAK (unknown origin) at 1 uM
[42] = molecular target: 3-phosphoinositide-dependent protein kinase 1 (Homo sapiens) (UniProt O15530); experiment: Inhibition of PDK1 (unknown origin) at 1 uM

Chain of Indoleamine 2,3-dioxygenase 1 (Mus musculus) (P28776 whole entry, looked up): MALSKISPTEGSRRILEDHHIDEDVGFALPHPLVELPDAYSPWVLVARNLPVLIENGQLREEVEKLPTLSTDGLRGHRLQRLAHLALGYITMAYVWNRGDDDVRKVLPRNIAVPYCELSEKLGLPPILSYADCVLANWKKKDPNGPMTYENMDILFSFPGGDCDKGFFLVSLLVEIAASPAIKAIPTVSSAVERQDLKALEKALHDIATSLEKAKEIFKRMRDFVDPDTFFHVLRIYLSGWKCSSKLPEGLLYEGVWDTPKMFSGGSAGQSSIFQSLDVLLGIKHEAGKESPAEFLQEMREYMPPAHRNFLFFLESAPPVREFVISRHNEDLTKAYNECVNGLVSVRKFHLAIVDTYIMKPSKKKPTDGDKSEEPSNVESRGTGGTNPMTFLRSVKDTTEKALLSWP
Chain of Serine/threonine-protein kinase PLK4 (Homo sapiens) (O00444 whole entry): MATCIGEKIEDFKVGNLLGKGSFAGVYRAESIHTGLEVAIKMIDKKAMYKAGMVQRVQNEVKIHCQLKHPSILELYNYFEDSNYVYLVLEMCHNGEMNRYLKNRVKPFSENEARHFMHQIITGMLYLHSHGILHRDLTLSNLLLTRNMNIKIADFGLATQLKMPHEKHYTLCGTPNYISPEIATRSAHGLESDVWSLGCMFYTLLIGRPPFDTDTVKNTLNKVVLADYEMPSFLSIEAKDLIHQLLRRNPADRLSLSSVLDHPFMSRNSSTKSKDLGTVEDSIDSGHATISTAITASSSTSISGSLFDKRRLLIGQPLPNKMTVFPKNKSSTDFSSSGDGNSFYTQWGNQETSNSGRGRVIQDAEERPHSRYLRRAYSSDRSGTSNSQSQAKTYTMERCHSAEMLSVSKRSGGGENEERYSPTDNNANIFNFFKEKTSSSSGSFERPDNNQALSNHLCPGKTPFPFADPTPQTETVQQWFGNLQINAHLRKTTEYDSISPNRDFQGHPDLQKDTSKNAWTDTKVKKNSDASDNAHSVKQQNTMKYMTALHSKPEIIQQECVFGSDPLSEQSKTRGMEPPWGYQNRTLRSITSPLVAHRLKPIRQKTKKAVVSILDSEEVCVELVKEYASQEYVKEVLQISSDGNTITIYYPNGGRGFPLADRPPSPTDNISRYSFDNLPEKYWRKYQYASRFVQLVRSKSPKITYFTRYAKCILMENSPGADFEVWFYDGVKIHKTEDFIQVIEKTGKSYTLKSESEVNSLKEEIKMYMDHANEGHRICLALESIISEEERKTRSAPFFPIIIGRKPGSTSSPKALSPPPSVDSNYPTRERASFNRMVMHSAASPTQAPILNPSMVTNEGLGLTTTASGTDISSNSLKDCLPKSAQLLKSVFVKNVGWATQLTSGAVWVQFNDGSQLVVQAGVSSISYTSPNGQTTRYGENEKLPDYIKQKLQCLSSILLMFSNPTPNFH
Chain of Serine/threonine-protein kinase PAK 6 (Homo sapiens) (Q9NQU5 whole entry, looked up): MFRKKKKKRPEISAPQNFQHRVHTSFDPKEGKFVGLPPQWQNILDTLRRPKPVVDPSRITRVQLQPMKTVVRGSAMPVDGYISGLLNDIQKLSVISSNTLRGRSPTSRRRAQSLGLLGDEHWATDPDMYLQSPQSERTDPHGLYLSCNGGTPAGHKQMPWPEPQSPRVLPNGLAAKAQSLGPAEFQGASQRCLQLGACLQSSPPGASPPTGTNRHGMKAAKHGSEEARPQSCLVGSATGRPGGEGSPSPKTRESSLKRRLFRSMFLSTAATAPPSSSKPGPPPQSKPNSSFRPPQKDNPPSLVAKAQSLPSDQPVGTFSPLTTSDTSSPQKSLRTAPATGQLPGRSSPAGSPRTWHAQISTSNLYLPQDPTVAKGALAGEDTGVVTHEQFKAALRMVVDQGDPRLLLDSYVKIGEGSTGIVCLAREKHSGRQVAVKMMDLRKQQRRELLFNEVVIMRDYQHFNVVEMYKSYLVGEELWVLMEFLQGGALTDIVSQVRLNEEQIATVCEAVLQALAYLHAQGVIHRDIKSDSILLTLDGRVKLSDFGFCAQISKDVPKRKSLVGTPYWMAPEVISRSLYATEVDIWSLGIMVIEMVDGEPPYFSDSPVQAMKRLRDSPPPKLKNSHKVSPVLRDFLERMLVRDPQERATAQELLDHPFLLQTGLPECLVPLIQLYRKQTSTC
Chain of Ephrin type-A receptor 2 (Homo sapiens) (P29317 whole entry): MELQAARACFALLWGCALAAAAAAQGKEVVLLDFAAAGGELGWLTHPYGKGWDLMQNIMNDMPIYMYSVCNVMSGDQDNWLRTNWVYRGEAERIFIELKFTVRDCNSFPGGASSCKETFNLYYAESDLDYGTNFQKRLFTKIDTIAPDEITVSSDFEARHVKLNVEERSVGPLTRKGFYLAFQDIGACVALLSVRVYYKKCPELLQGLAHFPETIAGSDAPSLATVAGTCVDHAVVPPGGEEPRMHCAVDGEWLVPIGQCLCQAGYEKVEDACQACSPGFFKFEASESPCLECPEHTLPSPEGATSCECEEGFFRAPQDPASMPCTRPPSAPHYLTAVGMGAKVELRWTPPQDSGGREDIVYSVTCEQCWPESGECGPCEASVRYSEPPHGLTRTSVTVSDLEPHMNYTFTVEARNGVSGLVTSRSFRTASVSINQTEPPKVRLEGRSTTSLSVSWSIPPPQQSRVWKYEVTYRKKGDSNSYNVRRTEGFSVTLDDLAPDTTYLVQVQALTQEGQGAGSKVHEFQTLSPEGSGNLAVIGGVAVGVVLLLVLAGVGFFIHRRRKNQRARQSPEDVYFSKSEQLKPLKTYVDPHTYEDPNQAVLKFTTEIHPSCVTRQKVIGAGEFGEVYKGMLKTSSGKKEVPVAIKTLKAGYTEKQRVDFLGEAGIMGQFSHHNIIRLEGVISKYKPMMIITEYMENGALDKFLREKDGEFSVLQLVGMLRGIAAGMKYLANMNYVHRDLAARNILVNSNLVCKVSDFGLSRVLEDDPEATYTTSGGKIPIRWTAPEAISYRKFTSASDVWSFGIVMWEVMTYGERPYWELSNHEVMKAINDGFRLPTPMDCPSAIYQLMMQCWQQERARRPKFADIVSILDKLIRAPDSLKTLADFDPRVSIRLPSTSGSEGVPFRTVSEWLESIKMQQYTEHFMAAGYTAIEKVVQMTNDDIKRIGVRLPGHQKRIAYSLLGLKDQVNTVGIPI
Chain of Cyclin-dependent kinase 5/CDK5 activator 1 (Homo sapiens) (Q00535 whole entry, canonical isoform): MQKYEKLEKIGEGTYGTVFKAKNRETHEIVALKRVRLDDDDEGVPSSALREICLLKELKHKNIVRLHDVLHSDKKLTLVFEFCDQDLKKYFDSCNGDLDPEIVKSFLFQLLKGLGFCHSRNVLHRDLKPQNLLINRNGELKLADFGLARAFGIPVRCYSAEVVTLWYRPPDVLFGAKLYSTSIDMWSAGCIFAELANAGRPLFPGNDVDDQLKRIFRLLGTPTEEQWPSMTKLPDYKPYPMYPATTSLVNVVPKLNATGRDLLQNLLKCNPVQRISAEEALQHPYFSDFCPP
Chain of Cyclin-dependent kinase 5/CDK5 activator 1 (Homo sapiens) (Q15078 99-307 partner limits assumed): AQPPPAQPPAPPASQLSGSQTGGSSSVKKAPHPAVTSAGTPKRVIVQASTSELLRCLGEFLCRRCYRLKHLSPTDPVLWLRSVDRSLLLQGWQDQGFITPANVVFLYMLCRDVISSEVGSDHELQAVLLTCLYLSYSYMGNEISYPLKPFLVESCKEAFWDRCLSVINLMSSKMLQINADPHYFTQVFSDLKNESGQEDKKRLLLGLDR
Chain of Insulin receptor-related protein (Homo sapiens) (P14616 27-742 limits assumed): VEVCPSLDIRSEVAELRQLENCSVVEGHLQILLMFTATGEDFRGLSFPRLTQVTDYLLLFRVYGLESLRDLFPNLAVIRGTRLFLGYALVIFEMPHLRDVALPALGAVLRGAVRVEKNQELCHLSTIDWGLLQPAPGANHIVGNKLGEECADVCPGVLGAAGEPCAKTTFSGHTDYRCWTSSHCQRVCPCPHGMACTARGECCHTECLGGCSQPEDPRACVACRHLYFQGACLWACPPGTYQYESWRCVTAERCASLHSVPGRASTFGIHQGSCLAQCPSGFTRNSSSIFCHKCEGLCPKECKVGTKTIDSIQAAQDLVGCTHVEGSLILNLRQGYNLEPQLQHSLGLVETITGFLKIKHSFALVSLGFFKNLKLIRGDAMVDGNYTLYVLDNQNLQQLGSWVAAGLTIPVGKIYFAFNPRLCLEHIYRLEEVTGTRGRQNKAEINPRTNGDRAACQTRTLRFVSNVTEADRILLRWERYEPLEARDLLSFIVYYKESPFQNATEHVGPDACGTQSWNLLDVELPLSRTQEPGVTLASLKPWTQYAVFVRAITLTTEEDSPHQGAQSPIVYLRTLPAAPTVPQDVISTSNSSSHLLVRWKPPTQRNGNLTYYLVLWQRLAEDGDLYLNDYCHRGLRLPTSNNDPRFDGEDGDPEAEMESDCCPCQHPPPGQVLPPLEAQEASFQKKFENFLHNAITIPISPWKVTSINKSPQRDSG
Chain of Insulin receptor-related protein (Homo sapiens) (P14616 747-1297 limits assumed): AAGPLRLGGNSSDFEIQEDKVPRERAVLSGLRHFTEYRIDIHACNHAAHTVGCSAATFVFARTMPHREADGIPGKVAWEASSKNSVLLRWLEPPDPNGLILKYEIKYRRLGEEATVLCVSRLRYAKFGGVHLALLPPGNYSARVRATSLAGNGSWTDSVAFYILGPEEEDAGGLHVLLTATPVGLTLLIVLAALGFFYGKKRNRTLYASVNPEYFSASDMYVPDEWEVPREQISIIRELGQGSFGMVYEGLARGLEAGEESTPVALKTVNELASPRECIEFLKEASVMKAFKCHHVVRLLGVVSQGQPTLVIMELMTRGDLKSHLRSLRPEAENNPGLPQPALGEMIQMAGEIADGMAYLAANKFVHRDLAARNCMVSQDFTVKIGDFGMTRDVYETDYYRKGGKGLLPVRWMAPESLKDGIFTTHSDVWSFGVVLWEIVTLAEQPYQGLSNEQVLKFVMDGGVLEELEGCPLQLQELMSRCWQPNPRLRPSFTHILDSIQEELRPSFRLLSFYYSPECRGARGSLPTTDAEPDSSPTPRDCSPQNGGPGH

OCCOCc1cn(CCNc2nonc2/C(=N/O)Nc2ccc(F)c(Br)c2)nn1
AUC(0-inf) [1]: 3050 ng·h/mL
Activity (HeLa): Active
AUC(0-t) [2]: 3640 ng·h/mL
fraction unbound [3]: 0.0411
fraction unbound [4]: 0.0498
fraction unbound [5]: 0.0498
Activity (HCT-116): Active
inhibition [6]: Active
inhibition [7]: Active
inhibition [8]: inactive
inhibition [9]: inactive
inhibition [10]: inactive
inhibition [11]: inactive
inhibition [12]: inactive
inhibition [13]: inactive
inhibition [14]: inactive
inhibition [15]: inactive
inhibition [16]: inactive
inhibition [17]: inactive
inhibition [18]: inactive
inhibition [19]: inactive
inhibition [20]: inactive
inhibition [21]: inactive
inhibition [22]: inactive
inhibition [23]: inactive
inhibition [24]: inactive
inhibition [25]: inactive
inhibition [26]: inactive
inhibition [27]: inactive
inhibition [28]: inactive
inhibition [29]: inactive
inhibition [30]: inactive
inhibition [31]: inactive
inhibition [32]: inactive
inhibition [33]: inactive
inhibition [34]: inactive
inhibition [35]: inactive
inhibition [36]: inactive
inhibition [37]: inactive
inhibition [38]: inactive
inhibition [39]: inactive
inhibition [40]: inactive
inhibition [41]: inactive
inhibition [42]: inactive
